Legend:
[1] = tested on: PTK2 high ovarian PDX OV2423; assay: PTK2 high ovarian PDX model OV2423, Compound 5 and carboplatin and/or paclitaxel; format: in vivo, mouse; conditions: for RTV on Day 28 after administration (mean ± standard error) / T/C on Day 28 after administration (%): Compound 5 50 mg/kg orally once per day, carboplatin 30 mg/kg i.p. once a week, paclitaxel 10 mg/kg i.v. once a week, 28 days; for mRECIST: animals per class; for antitumor activity (conclusion in words): mouse, in vivo
Protocol: (§1) A subcutaneous xenograft tumor model of human tumor immunodeficient mice was established by cell inoculation: tumor cells in logarithmic growth phase were collected, counted, resuspended in 1×PBS, and the cell suspension concentration was adjusted to 2.5-5 ×10^7/mL. The tumor cells were inoculated subcutaneously in the right side of immunodeficient mice with a 1 mL syringe ([…]), 5-10×10^6/0.2 mL/mouse. All animal experiments were strictly in accordance with the specifications for the use and management of experimental animals in GenePharma Co., Ltd. and Suzhou Ascentage Pharma Co., Ltd. The calculation of relevant parameters refers to the Chinese NMPA “Guidelines for Non-Clinical Research Techniques of Cytotoxic Anti-tumor Drugs”.
(§2) Animal body weight and tumor size were measured twice weekly during the experiment. The state of the animal and the presence or absence of death were observed every day. The growth of tumor and the effects of treatment on normal behavior of animals were monitored routinely, specifically involving experimental animal activity, feeding and drinking, weight gain or loss, eyes, clothing hair and other abnormalities. The deaths and clinical symptoms observed during the experiment were recorded in the raw data. All operations for administration and measurement of mouse body weight and tumor volume were performed in a clean bench. According to the requirements of the experimental protocol, after the end of the last administration, plasma and tumor tissues were collected, weighed and photographed. The plasma and tumor samples were frozen at −80° C. for ready-to-use.
(§3) Tumor volume (TV) is calculated as: TV=a×b^2/2, wherein a and b represent the length and width of the tumor to be measured, respectively.
(§4) The relative tumor volume (RTV) is calculated as: RTV=Vt/V1, wherein V1 is the tumor volume at the start of grouping and administration, and Vt is the tumor volume measured on the t day after administration.
(§5) Change of body weight (%)=(measured body weight−body weight at the start of grouping)/body weight at the start of grouping×100%.
(§6) A dose of drug is considered to be severely toxic if the body weight of mouse is reduced by more than 20% or the number of drug-related deaths exceeds 20%.
(§7) According to the description by Clarke R., Issues in experimental design and endpoint analysis in the study of experimental cytotoxic agents in vivo in breast cancer and other models [J]. Breast Cancer Research & Treatment, 1997, 46(2-3): 255-278, synergy analysis was evaluated using the following formula: synergy factor=((A/C)×(B/C))/(AB/C); A=RTV value of drug A alone group; B=RTV value of drug B alone group; C=RTV value of the solvent control group, and AB=RTV value of the A and B combination group.
(§8) Use of mRECIST (Gao et al., 2015) measured tumor responses included stable disease (SD), partial tumor regression (PR), and complete regression (CR), determined by comparing tumor volume change at day t to its baseline: tumor volume change (%)=(Vt−V1)/V1. The BestResponse was the minimum value of tumor volume change (%) for t≥10. For each time t, the average of tumor volume changes from t=1 to t was also calculated. BestAvgResponse was defined as the minimum value of this average for t≥10. The criteria for response (mRECIST) were adapted from RECIST criteria (Gao et al., 2015; Therasse et al., 2000) and defined as follows: mCR, BestResponse<−95% and BestAvg Response<−40%; mPR, BestResponse<−50% and BestAvgResponse<−20%; mSD, BestResponse<35% and BestAvgResponse<30%; mPD, not otherwise categorized. SD, PR, and CR were considered responders and used to calculate response rate (%). […] Body weight of animals were monitored simultaneously. The change in body weight was calculated based on the animal weight of the first day of dosing (day 1). Tumor volume and changes in body weight (%) were represented as the mean±standard error of the mean (SEM).

[2] = tested on: ovarian PA-1 xenograft; assay: s.c. ovarian PA-1 xenograft tumor model, Compound 5 and carboplatin; format: in vivo, mouse; conditions: Compound 5 100 mg/kg orally once per day 21 days, carboplatin 50 mg/kg i.p. once on Day 1
Protocol: as §1, §2, §3, §4
(§9) The evaluation index of anti-tumor activity is the relative tumor proliferation rate T/C (%), and the calculation formula thereof is: relative tumor proliferation rate T/C (%)=(TRTV/CRTV)×100%, TRTV is the RTV of treatment group, CRTV is the RTV of solvent control group.
as §5, §6, §7
Use of mRECIST (Gao et al., 2015) measured tumor responses included stable disease (SD), partial tumor regression (PR), and complete regression (CR), determined by comparing tumor volume change at day t to its baseline: tumor volume change (%)=(Vt−V1)/V1. The BestResponse was the minimum value of tumor volume change (%) for t≥10. For each time t, the average of tumor volume changes from t=1 to t was also calculated. […] Body weight of animals were monitored simultaneously. […]

[3] = tested on: PTK2 high ovarian PDX OV1385; assay: PTK2 high ovarian PDX model OV1385, Compound 5 and carboplatin and/or paclitaxel; format: in vivo, mouse; conditions: for RTV on Day 35 after administration (mean ± standard error) / T/C on Day 35 after administration (%): Compound 5 50 mg/kg orally once per day, carboplatin 30 mg/kg i.p. once a week, paclitaxel 10 mg/kg i.v. once a week, 35 days; for mRECIST on Day 35 after administration: Day 35, animals per class; for antitumor activity (conclusion in words): mouse, in vivo
Protocol: as §1, §2, §3, §4, §5, §6, §7, §8

[4] = tested on: PTK2 high NSCLC PDX LU-01-0604; assay: s.c. PTK2 high NSCLC PDX model LU-01-0604, Compound 5 and carboplatin; format: in vivo, mouse
Protocol: as §1, §2, §3, §4, §9, §5, §6, §7
as §8, with “The change in body weight was calculated based on the animal weight of the first day of dosing (day 1). Tumor volume and changes in body weight (%) were represented as the mean±standard error of the mean (SEM).” left out

[5] = tested on: ovarian PDX OV1658; assay: Ovarian PDX model OV1658, Compound 5 and carboplatin and/or paclitaxel; format: in vivo, mouse; conditions: for RTV on Day 19 after administration (mean ± standard error) / T/C on Day 19 after administration (%): Compound 5 50 mg/kg orally once per day, carboplatin 30 mg/kg i.p. once a week, paclitaxel 10 mg/kg i.v. once a week, 19 days; for mRECIST on Day 19 after administration: Day 19, animals per class; for mRECIST: best response, animals per class; for antitumor activity (conclusion in words): mouse, in vivo
Protocol: as §1, §2, §3, §4, §5, §6, §7, §8

[6] = tested on: NCI-H2228 tumor cells; assay: Cell viability WST (CCK-8) assay, combination of Compound 5 and Compound 34; format: cell-based; conditions: Homo sapiens, 72 hours, single agent, read-out: Compound B IC50
Protocol: Cell plating: Anti-proliferative effects were detected by a CCK-8 (Cell Counting Kit-8, Shanghai life iLab, China) assay based on water soluble tetrazolium salt (WST). The cells were seeded in 96-well plates, and only 95 μL of complete medium was added to each negative control group. 95 μL of complete medium cell suspension was added to each well to be tested, and the cell density was (5-10)×10^4/hole. Dosing (protection from light): […] After 72 hours of action by using 6 different concentrations of Compound 34 with 3 fixed doses of Compound 5, the combination effect of Compound 5 an Compound 34 was tested. Reading: […] The plates were continuously incubated at 37 ° C. for 2-4 hours in a CO2 incubator. The OD values were measured using a microplate reader (SpectraMax Plus 384, Molecular Devices, LLC., US) under A450 nm. […] (O.D. of test well−O.D. of blank control well)/(O.D. of cell control well−O.D. of blank control well)×100%. IC50 values were calculated using Graphpad Prism 6.0 software for nonlinear regression data analysis method.

[7] = tested on: OVCAR3 s.c. ovarian xenograft; format: in vivo
Protocol: as §1, §2, §3, §4, §5, §6, §7, §8

[8] = tested on: PTK2 high ovarian PDX OV2018; assay: PTK2 high ovarian PDX model OV2018, Compound 5 and paclitaxel; format: in vivo, mouse
Protocol: as §1, §2, §3, §4, §5, §6, §7, §8

[9] = tested on: OVCAR3 s.c. ovarian xenograft; assay: OVCAR3 s.c. ovarian xenograft model, overcoming resistance to paclitaxel / paclitaxel and carboplatin; format: in vivo, mouse
Protocol: as §1
as §2, with “All operations for administration and measurement of mouse body weight and tumor volume were performed in a clean bench. According to the requirements of the experimental protocol, after the end of the last administration, plasma and tumor tissues were collected, weighed and photographed.” left out
as §3, §4
Change of body weight (%)=(measured body weight−body weight at the start of grouping)/body weight at the start of grouping×100%. […]
Use of mRECIST (Gao et al., 2015) measured tumor responses included stable disease (SD), partial tumor regression (PR), and complete regression (CR), determined by comparing tumor volume change at day t to its baseline: tumor volume change (%)=(Vt−V1)/V1. […]

[10] = tested on: A549 NSCLC xenograft; assay: s.c. A549 NSCLC lung cancer model, Compound 5 and panobinostat; format: in vivo, mouse; conditions: Compound 5 100 mg/kg orally once per day, panobinostat 3 mg/kg i.p. 5 days then 2 days break, 14 days
[11] = Compound 5 50 mg/kg orally once per day, carboplatin 30 mg/kg i.p. once per week, 29 days
[12] = Compound 5 100 mg/kg orally once per day, paclitaxel 10 mg/kg i.v. once a week, carboplatin 30 mg/kg i.v. once a week
[13] = Compound 5 50 mg/kg orally once per day, paclitaxel 10 mg/kg i.v. once a week, 35 days
[14] = best response, animals per class

| Compound | RTV on Day 28 after administration (mean ± standard error) [1] | T/C on Day 28 after administration (%) [1] | mRECIST [1] | antitumor activity (conclusion in words) [1] | RTV on Day 35 after administration (mean ± standard error) [3] | T/C on Day 35 after administration (%) [3] | mRECIST on Day 35 after administration [3] | antitumor activity (conclusion in words) [3] | RTV on Day 19 after administration (mean ± standard error) [5] | T/C on Day 19 after administration (%) [5] | mRECIST on Day 19 after administration [5] | mRECIST [5] | antitumor activity (conclusion in words) [5] | also measured |
| --- | --- | --- | --- | --- | --- | --- | --- | --- | --- | --- | --- | --- | --- | --- |
| N.N.O=C([O-])C1(C(=O)[O-])CCC1.[Pt+2] [Carboplatin, carboplatin] | 8.97 ± 1.24 | 47.76% | 2/2 PD | moderate antitumor activity | 2.08 ± 0.49 | 51.49% | 2/2 PD | moderate antitumor activity | 9.34 ± 2.01 | 68.37% | 2/2 PD | 2/2 PD | minor antitumor activity | RTV on Day 22 after administration (mean ± standard error) [2]: 15.1 ± 2.3; T/C on Day 22 after administration (%) [2]: 94.97%; RTV on Day 29 after administration (mean ± standard error) [4, 11]: 11.15 ± 6.55; T/C on Day 29 after administration (%) [4, 11]: 127.72%; antitumor activity (conclusion in words) ([4]; mouse, in vivo): no antitumor activity |
| Cc1ccc(C(=O)Nc2ccc(CN3CCN(C)CC3)c(C(F)(F)F)c2)cc1C#Cc1cnc2[nH]ncc2c1 [Compound 34] | – | – | – | – | – | – | – | – | – | – | – | – | – | IC50 [6]: 1680 nM |
| CC(=O)O[C@H]1C(=O)[C@@]2(C)[C@H]([C@H](OC(=O)c3ccccc3)[C@]3(O)C[C@H](OC(=O)[C@H](O)[C@@H](NC(=O)c4ccccc4)c4ccccc4)C(C)=C1C3(C)C)[C@]1(OC(C)=O)CO[C@@H]1C[C@@H]2O [Paclitaxel, paclitaxel] | 9.54 ± 1.73 | 50.80% | 2/2 PD | moderate antitumor activity | 1.80 ± 0.75 | 44.55% | 2/2 PD | moderate antitumor activity | 11.79 | 86.31% | 2/2 PD | 2/2 PD | minor antitumor activity | RTV on Day 35 after administration (mean ± standard error) [7, 12]: 8.02 ± 1.30; T/C on Day 35 after administration (%) [7, 12]: 52.14%; mRECIST ([7]; animals per class): 5/5 PD; antitumor activity (conclusion in words) ([7]; mouse, in vivo): moderate antitumor activity; Overall regression rate (ORR), % ([7]; proportion of animals with CR or PR): 0%; Disease control rate (DCR), % ([7]; proportion of animals with CR, PR or SD): 0%; RTV on Day 35 after administration (mean ± standard error) [8, 13]: 2.87 ± 0.24; T/C on Day 35 after administration (%) [8, 13]: 118.60%; mRECIST on Day 35 after administration ([8]; Day 35, animals per class): 2/2 PD; mRECIST [8, 14]: 2/2 PD; antitumor activity (conclusion in words) ([8]; mouse, in vivo): no antitumor activity; DCR (%) ([9]; mouse, in vivo): 20%; ORR (%) ([9]; mouse, in vivo): 0%; RTV on Day 56 after administration (mean ± standard error) ([9]; paclitaxel 10 mg/kg i.v. once a week, carboplatin 30 mg/kg i.v. once a week, Compound 5 100 mg/kg orally once per day from Day 15): 5.19 ± 0.62; mRECIST [3, 14]: 2/2 PD |
| Cc1[nH]c2ccccc2c1CCNCc1ccc(/C=C/C(=O)NO)cc1 [panobinostat, reference compound] | – | – | – | – | – | – | – | – | – | – | – | – | – | RTV on Day 14 after administration (mean ± standard error) [10]: 2.06 ± 0.29; T/C on Day 14 after administration (%) [10]: 57.54% |

— patent US20230381176A1, “A PHARMACEUTICAL COMPOSITION AND USE THEREOF FOR TREATMENT OF CANCER” (Ascentage Pharma (Suzhou) Co., Ltd., priority 2020, published 2023)
